According to ChEMBL document CHEMBL4811277, “Glycyrrhetinic acid derivatives as Zika virus inhibitors: Synthesis and antiviral activity in vitro” (Bioorg Med Chem, 2021):
Calls of active or inactive are those of the source. No cut-off for these calls is given here.

Tests used:
[1] = tested on: Zika virus; experiment: Antiviral activity against Zika virus infected in human SF-268 cells assessed as inhibition of virus-induced cytopathic effect at 10 uM measured at 96 hrs MTT assay; type: functional
[2] = tested on: Zika virus; experiment: Antiviral activity against Zika virus infected in human SF-268 cells assessed as reduction in viral NS1 protein synthesis at 10 uM measured at 96 hrs by immunofluorescence assay relative to control; type: functional
[3] = Cytotoxicity against human SF-268 cells assessed as inhibition of cell viability measured after 96 hrs by MTT assay; type: cell-based
[4] = tested on: Zika virus; experiment: Antiviral activity against Zika virus infected in human SF-268 cells assessed as reduction in viral infection by DAPI staining based immunofluorescence assay; type: functional, organism-based
[5] = Therapeutic index, ratio of CC50 for cytotoxicity against human SF-268 cells to IC50 for antiviral activity against Zika virus infected in human SF-268 cells; type: toxicity, cell-based; conditions: read-out: TI
[6] = tested on: Zika virus; experiment: Antiviral activity against Zika virus infected in SF-268 cells assessed as inhibition of viral infection at entry stage measured after 96 hrs by DAPI staining based fluorescence microscopic analysis; type: functional, organism-based; conditions: SF-268, 96 h
[7] = tested on: Zika virus; experiment: Antiviral activity against Zika virus infected in SF-268 cells assessed as inhibition of viral infection at post entry stage after 96 hrs measured after 1 hr post infection by DAPI staining based fluorescence microscopic analysis; type: functional, organism-based

COC(=O)[C@@]1(C)CC[C@]2(C)CC[C@]3(C)C(=CCC4[C@@]5(C)CC/C(=N\NC(N)=S)C(C)(C)C5CC[C@]43C)C2C1 (some centres not stated)
inhibition [1]: Active | INH [2]: 49.5%

CC(=O)O[C@H]1CC[C@@]2(C)C(CC[C@]3(C)C2C(=O)C=C2C4C[C@@](C)(C(=O)Nc5cccnc5)CC[C@]4(C)CC[C@]23C)C1(C)C (some centres not stated)
inhibition at 10 µM [1]: > 70% | INH [2]: 76.3% | CC50 at 96 h [3]: > 50 µM | IC50 [4]: 0.13 µM | selectivity ratio [5]: > 384 | IC50 [6]: 0.68 µM | IC50 [7]: 1 µM

CCCCOC(=O)[C@@]1(C)CC[C@]2(C)CC[C@]3(C)C(=CC(=O)C4[C@@]5(C)CC/C(=N\NC(N)=O)C(C)(C)C5CC[C@]43C)[C@@H]2C1 (some centres not stated)
inhibition at 10 µM [1]: > 70% | INH [2]: 82.8% | CC50 at 96 h [3]: > 50 µM | IC50 [4]: 0.55 µM | selectivity ratio [5]: > 90.9 | IC50 [6]: 1.09 µM | IC50 [7]: 0.45 µM

CCCCOC(=O)[C@@]1(C)CC[C@]2(C)CC[C@]3(C)C(=CC(=O)C4[C@@]5(C)Cc6snnc6C(C)(C)C5CC[C@]43C)[C@@H]2C1 (some centres not stated)
inhibition at 10 µM [1]: > 70% | INH [2]: 82.1% | CC50 at 96 h [3]: > 50 µM | IC50 [4]: 0.56 µM | selectivity ratio [5]: > 89.3 | IC50 [6]: 0.5 µM | IC50 [7]: 0.43 µM

COC(=O)[C@@]1(C)CC[C@]2(C)CC[C@]3(C)C(=CCC4[C@@]5(C)CC/C(=N\NC(N)=O)C(C)(C)C5CC[C@]43C)C2C1 (some centres not stated)
inhibition [1]: Active | INH [2]: 49.9%

COC(=O)[C@@]1(C)CC[C@]2(C)CC[C@]3(C)C(=CCC4[C@@]5(C)Cc6snnc6C(C)(C)C5CC[C@]43C)C2C1 (some centres not stated)
inhibition [1]: Active | INH [2]: 55.4%

COC(=O)[C@@]1(C)CC[C@]2(C)CC[C@]3(C)C(=CC(=O)C4[C@@]5(C)CC/C(=N\NC(N)=O)C(C)(C)C5CC[C@]43C)[C@@H]2C1 (some centres not stated)
inhibition at 10 µM [1]: 63% | INH [2]: 66.6%

COC(=O)[C@@]1(C)CC[C@]2(C)CC[C@]3(C)C(=CC(=O)C4[C@@]5(C)Cc6snnc6C(C)(C)C5CC[C@]43C)[C@@H]2C1 (some centres not stated)
inhibition at 10 µM [1]: > 70% | INH [2]: 74.9% | CC50 at 96 h [3]: > 50 µM | IC50 [4]: 0.29 µM | selectivity ratio [5]: > 172 | IC50 [6]: 0.62 µM | IC50 [7]: 1.94 µM

COC(=O)[C@]1(C)C=C2C3=CC(=O)C4[C@@]5(C)CC/C(=N\NC(N)=O)C(C)(C)C5CC[C@@]4(C)[C@]3(C)CC[C@@]2(C)CC1 (some centres not stated)
inhibition at 10 µM [1]: 63% | INH [2]: 62.6%

CC(=O)O[C@H]1CC[C@@]2(C)C(CC[C@]3(C)C2C(=O)C=C2C4C[C@@](C)(C(=O)Nc5cnc6ccccc6c5)CC[C@]4(C)CC[C@]23C)C1(C)C (some centres not stated)
inhibition [1]: Active | INH [2]: 26.5%

CC(=O)O[C@H]1CC[C@@]2(C)C(CC[C@]3(C)C2C(=O)C=C2C4C[C@@](C)(C(=O)Nc5nc(-c6ccccc6)cs5)CC[C@]4(C)CC[C@]23C)C1(C)C (some centres not stated)
inhibition [1]: Active | INH [2]: 52.3%
